Test system: Liver microsomes
Settings: human

SMILES	CL [mL/min/g]
N#Cc1cccc(N2CCN(CCN3Cc4ccccc4C3)C2=O)c1	1.6
O=C1N(CCN2Cc3ccccc3C2)CCN1c1cccc(Cl)c1	8.9
O=C1N(CCN2CCC(C(F)(F)F)CC2)CCN1c1cccc(Cl)c1	17.6

Further lines, results first:

CL [mL/min/g]	SMILES
9.1	N#Cc1cc(N2CCN(CCN3CCC(C(F)(F)F)CC3)C2=O)ccc1F
< 0.5	CC(C)N1CCN(CCN2CCN(c3cccc(C#N)c3)C2=O)CC1

Source: ChEMBL document CHEMBL1152393, “Dopamine D(3) receptor antagonists: The quest for a potentially selective PET ligand. Part two: Lead optimization” (Bioorg Med Chem Lett, 2009)
